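Cells were grown in 96-well plates and exposed to each compound for 48 hours at five concentrations; endpoints were interpolated linearly between bracketing concentrations, or set to the highest concentration if not reached. The concentration for 50% growth inhibition is given as GI50. TGI: concentration producing complete growth inhibition.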
How the values were obtained:
Test in all cases: inhibition of tumour cell growth, NCI panel, 48 h
DU-145 prostate = test system: DU-145 prostate
HCT-15 colon = test system: HCT-15 colon
IGROV1 ovarian = test system: IGROV1 ovarian
MDA-MB-231 breast = test system: MDA-MB-231 breast
NCI-H226 lung = test system: NCI-H226 lung
OVCAR-8 ovarian = test system: OVCAR-8 ovarian
RPMI-8226 leukemia = test system: RPMI-8226 leukemia
SNB-75 CNS = test system: SNB-75 CNS
UACC-62 melanoma = test system: UACC-62 melanoma
SK-OV-3 ovarian = test system: SK-OV-3 ovarian

`COC1(O)C(=O)c2ccccc2OC1(OC)c1ccccc1` (centres undefined) gave a TGI (DU-145 prostate) greater than 100 µM, a TGI (HCT-15 colon) greater than 100 µM and a TGI (IGROV1 ovarian) greater than 100 µM. For the same compound, the TGI (MDA-MB-231 breast) was greater than 100 µM, the TGI (NCI-H226 lung) was greater than 100 µM and the TGI (OVCAR-8 ovarian) was greater than 100 µM. For the same compound, the TGI (RPMI-8226 leukemia) was greater than 100 µM, the TGI (SNB-75 CNS) was greater than 100 µM and the TGI (UACC-62 melanoma) was greater than 100 µM.
Compound `N#C/C(=C1\NN=C(N)C(c2ccc(Cl)cc2)=C1O)c1ccc(Cl)cc1` has a TGI (IGROV1 ovarian) greater than 100 µM, a TGI (NCI-H226 lung) greater than 100 µM and a TGI (OVCAR-8 ovarian) greater than 100 µM. For the same compound, the TGI (RPMI-8226 leukemia) was greater than 100 µM, the TGI (SK-OV-3 ovarian) was greater than 100 µM and the TGI (SNB-75 CNS) was greater than 100 µM. The TGI (UACC-62 melanoma) was greater than 100 µM.
`O=C(O)CCSCCCN1C(=O)c2ccccc2C1=O` was tested, and the TGI (HCT-15 colon) was greater than 100 µM, the TGI (IGROV1 ovarian) was greater than 100 µM and the TGI (NCI-H226 lung) was greater than 100 µM. The TGI (OVCAR-8 ovarian) was greater than 100 µM, the TGI (RPMI-8226 leukemia) was greater than 100 µM and the TGI (SK-OV-3 ovarian) was greater than 100 µM. The TGI (SNB-75 CNS) was greater than 100 µM and the TGI (UACC-62 melanoma) was greater than 100 µM.
`Fc1cccc2cc3ccc4cccc5ccc(c12)c3c45` gave a TGI (IGROV1 ovarian) greater than 100 µM, a TGI (NCI-H226 lung) greater than 100 µM and a TGI (OVCAR-8 ovarian) greater than 100 µM. It also gave a TGI (SK-OV-3 ovarian) greater than 100 µM, a TGI (SNB-75 CNS) greater than 100 µM and a TGI (UACC-62 melanoma) greater than 100 µM.
`CCCCCCC#Cc1ccccc1C#CCO` gave a GI50 (DU-145 prostate) of 17.7 µM, a TGI (DU-145 prostate) of 36.3 µM and a GI50 (HCT-15 colon) of 35.9 µM. For the same compound, the TGI (HCT-15 colon) was greater than 100 µM, the GI50 (IGROV1 ovarian) was 18 µM and the TGI (IGROV1 ovarian) was 43.3 µM. It also gave a GI50 (MDA-MB-231 breast) greater than 100 µM, a TGI (MDA-MB-231 breast) greater than 100 µM and a GI50 (OVCAR-8 ovarian) of 21.7 µM. The TGI (OVCAR-8 ovarian) was 46.8 µM, the GI50 (RPMI-8226 leukemia) was 15 µM and the TGI (RPMI-8226 leukemia) was 31.4 µM. For the same compound, the GI50 (SK-OV-3 ovarian) was 18.4 µM, the TGI (SK-OV-3 ovarian) was 34.4 µM and the GI50 (UACC-62 melanoma) was 19.1 µM. For the same compound, the TGI (UACC-62 melanoma) was 43.6 µM.
Work on `O=C(/C=C/c1ccc(Cl)c(Cl)c1)c1ccc(F)cc1` yielded a TGI (HCT-15 colon) of 22.7 µM, a TGI (IGROV1 ovarian) of 40.2 µM and a TGI (NCI-H226 lung) of 92.6 µM. It also gave a TGI (OVCAR-8 ovarian) of 30.8 µM, a TGI (RPMI-8226 leukemia) of 12.6 µM and a TGI (SK-OV-3 ovarian) of 83.5 µM. It also gave a TGI (SNB-75 CNS) of 58.3 µM and a TGI (UACC-62 melanoma) of 28.8 µM.
`COc1ccc(-c2nnc(SCC(=O)Nc3ccc(/C(C)=N\O)cc3)n2-c2ccccc2)cc1OC` was tested, and the GI50 (DU-145 prostate) was 24.9 µM, the TGI (DU-145 prostate) was greater than 100 µM and the GI50 (HCT-15 colon) was greater than 100 µM. For the same compound, the TGI (HCT-15 colon) was greater than 100 µM, the GI50 (IGROV1 ovarian) was 3.74 µM and the TGI (IGROV1 ovarian) was 29.4 µM. The GI50 (MDA-MB-231 breast) was 4.26 µM, the TGI (MDA-MB-231 breast) was 23.8 µM and the GI50 (NCI-H226 lung) was 7.28 µM. For the same compound, the TGI (NCI-H226 lung) was greater than 100 µM, the GI50 (OVCAR-8 ovarian) was 7.36 µM and the TGI (OVCAR-8 ovarian) was greater than 100 µM. For the same compound, the GI50 (RPMI-8226 leukemia) was greater than 100 µM, the TGI (RPMI-8226 leukemia) was greater than 100 µM and the GI50 (SK-OV-3 ovarian) was 2.73 µM. For the same compound, the TGI (SK-OV-3 ovarian) was 13.7 µM, the GI50 (UACC-62 melanoma) was greater than 100 µM and the TGI (UACC-62 melanoma) was greater than 100 µM.
`COC(=O)C1C2C=CC(C2)C1(C(=O)OC)S(=O)CC12CCC(CC1O)C2(C)C` (centres undefined) was tested, and the TGI (HCT-15 colon) was 37.7 µM, the TGI (IGROV1 ovarian) was greater than 100 µM and the TGI (NCI-H226 lung) was greater than 100 µM. It also gave a TGI (OVCAR-8 ovarian) greater than 100 µM, a TGI (RPMI-8226 leukemia) greater than 100 µM and a TGI (SK-OV-3 ovarian) greater than 100 µM. It also gave a TGI (SNB-75 CNS) greater than 100 µM and a TGI (UACC-62 melanoma) greater than 100 µM.
In the case of `CN(C)CCNC(=O)c1ccc(C(=O)NCCN(C)C)c2nc3ccccc3cc12`, the TGI (HCT-15 colon) is reported as 16.9 µM, the TGI (IGROV1 ovarian) is reported as greater than 50.2 µM and the TGI (NCI-H226 lung) is reported as 3.6 µM. For the same compound, the TGI (OVCAR-8 ovarian) was 12.7 µM, the TGI (SK-OV-3 ovarian) was 7.5 µM and the TGI (SNB-75 CNS) was 3.46 µM. For the same compound, the TGI (UACC-62 melanoma) was 2.38 µM.
Work on `COc1ccc(C2=NN(C(=O)COc3ccc(Cl)cc3)C(O)(c3ccc(Cl)cc3)C2)cc1` (centres undefined) yielded a TGI (HCT-15 colon) greater than 100 µM, a TGI (IGROV1 ovarian) greater than 100 µM and a TGI (NCI-H226 lung) greater than 100 µM. It also gave a TGI (OVCAR-8 ovarian) greater than 100 µM, a TGI (RPMI-8226 leukemia) greater than 100 µM and a TGI (SK-OV-3 ovarian) greater than 100 µM. It also gave a TGI (SNB-75 CNS) greater than 100 µM and a TGI (UACC-62 melanoma) greater than 100 µM.
Work on `Nc1c(Br)c(=O)[nH]c(=O)n1COCCO` yielded a TGI (IGROV1 ovarian) greater than 100 µM, a TGI (OVCAR-8 ovarian) greater than 100 µM and a TGI (SNB-75 CNS) greater than 100 µM. It also gave a TGI (UACC-62 melanoma) greater than 100 µM.
